Experimental data reported in ChEMBL document CHEMBL4765299 (Eur J Med Chem, 2020).
Calls of active or inactive are those of the source. No cut-off for these calls is given here.

How the values were obtained:
[1] = (§1) against A against n against t against i against p against r against o against l against i against f against e against r against a against t against i against v against e against a against c against t against i against v against i against t against y against a against g against a against i against n against s against t against h against u against m against a against n against K against 5 against 6 against 2 against c against e against l against l against s against a against s against s against e against s against s against e against d against a against s against r against e against d against u against c against t against i against o against n against i against n against c against e against l against l against v against i against a against b against i against l against i against t against y against m against e against a against s against u against r against e against d against a against f against t against e against r against 7 against 2 against h against r against s against b against y against M against T against T against a against s against s against a against y against; type: functional, tissue-based, Homo sapiens; settings: k562
HepG2 = assay: Antiproliferative against human HepG2 cells assessed as reduction in cell viability measured after 72 hrs by MTT assay; type: functional, cell-based; settings: HepG2, 72 h
[2] = as §1, with “n against H against C” for “n against K against 5”, “H against C against T” for “K against 5 against 6”, “C against T against -” for “5 against 6 against 2”, “T against - against 8 against c” for “6 against 2 against c”; type: functional, tissue-based, Homo sapiens; settings: hct-8
[3] = against A against n against t against i against p against r against o against l against i against f against e against r against a against t against i against v against e against a against c against t against i against v against i against t against y against a against g against a against i against n against s against t against h against u against m against a against n against M against D against A against - against M against B against - against 2 against 3 against 1 against c against e against l against l against s against a against s against s against e against s against s against e against d against a against s against r against e against d against u against c against t against i against o against n against i against n against c against e against l against l against v against i against a against b against i against l against i against t against y against m against e against a against s against u against r against e against d against a against f against t against e against r against 7 against 2 against h against r against s against b against y against M against T against T against a against s against s against a against y against; type: functional, tissue-based, Homo sapiens; settings: mda-mb-231
[4] = against C against y against t against o against t against o against x against i against c against i against t against y against a against g against a against i against n against s against t against h against u against m against a against n against H against F against L against - against 1 against c against e against l against l against s against a against s against s against e against s against s against e against d against a against s against r against e against d against u against c against t against i against o against n against i against n against c against e against l against l against v against i against a against b against i against l against i against t against y against m against e against a against s against u against r against e against d against a against f against t against e against r against 7 against 2 against h against r against s against b against y against M against T against T against a against s against s against a against y against; type: ADME, tissue-based; settings: Homo sapiens, HFL1
[5] = Inhibition of porcine brain tubulin polymerization assessed as inhibition of microtubule assembly by measuring decrease in absorbance measured for 60 mins by fluorescence based analysis; type: tissue-based, Sus scrofa
Sus scrofa [6] = organism: Sus scrofa; assay: Displacement of [3H]colchicine from porcine brain tubulin at 1 uM incubated for 2 hrs by TopCount scintillation counting method relative to control; type: tissue-based
Sus scrofa [7] = organism: Sus scrofa; assay: Displacement of [3H]colchicine from porcine brain tubulin at 5 uM incubated for 2 hrs by TopCount scintillation counting method relative to control; type: tissue-based
H22 [8] = assay: Anti-tumor activity against mouse H22 cells allografted in ICR mice assessed as reduction in tumor weight at 30 mg/kg, iv administered daily for 21 days; type: functional; settings: 504 h, time 21 day
H22 [9] = assay: Anti-tumor activity against mouse H22 cells allografted in ICR mice assessed as reduction in tumor weight at 15 mg/kg, iv administered daily for 21 days; type: functional; settings: 504 h, time 21 day
K562 [10] = assay: Induction of cell cycle arrest in human K562 cells assessed as accumulation at G1 phase at 3 nM incubated for 48 hrs by propidium iodide/RNase staining based flow cytometry (reference value: 38.75%); type: functional
K562 [11] = assay: Induction of cell cycle arrest in human K562 cells assessed as accumulation at S phase at 3 nM incubated for 48 hrs by propidium iodide/RNase staining based flow cytometry (reference value: 53.42%); type: functional
K562 [12] = assay: Induction of cell cycle arrest in human K562 cells assessed as accumulation at G2/M phase at 3 nM incubated for 48 hrs by propidium iodide/RNase staining based flow cytometry (reference value: 7.83%); type: functional
K562 [13] = assay: Induction of cell cycle arrest in human K562 cells assessed as accumulation at G1 phase at 6 nM incubated for 48 hrs by propidium iodide/RNase staining based flow cytometry (reference value: 38.75%); type: functional
K562 [14] = assay: Induction of cell cycle arrest in human K562 cells assessed as accumulation at S phase at 6 nM incubated for 48 hrs by propidium iodide/RNase staining based flow cytometry (reference value: 53.42%); type: functional
K562 [15] = assay: Induction of cell cycle arrest in human K562 cells assessed as accumulation at G2/M phase at 6 nM incubated for 48 hrs by propidium iodide/RNase staining based flow cytometry (reference value: 7.83%); type: functional
K562 [16] = assay: Induction of cell cycle arrest in human K562 cells assessed as accumulation at G1 phase at 12 nM incubated for 48 hrs by propidium iodide/RNase staining based flow cytometry (reference value: 38.75%); type: functional
K562 [17] = assay: Induction of cell cycle arrest in human K562 cells assessed as accumulation at S phase at 12 nM incubated for 48 hrs by propidium iodide/RNase staining based flow cytometry (reference value: 53.42%); type: functional
K562 [18] = assay: Induction of cell cycle arrest in human K562 cells assessed as accumulation at G2/M phase at 12 nM incubated for 48 hrs by propidium iodide/RNase staining based flow cytometry (reference value: 7.83%); type: functional
H22 [19] = assay: Antiproliferative activity against mouse H22 cells assessed as inhibition of cell growth by MTT assay; type: functional, cell-based
H22 [20] = assay: Anti-tumor activity against mouse H22 cells allografted in ICR mice assessed as reduction in tumor weight at 6 mg/kg, iv administered every 2 days for 21 days; type: functional; settings: 504 h, time 21 day
Sus scrofa [21] = organism: Sus scrofa; assay: Induction of porcine brain tubulin polymerization assessed as induction of microtubule assembly by measuring increase in absorbance at 10 uM measured for 60 mins by fluorescence based analysis; type: tissue-based

| SMILES | IC50 [1] [nM] | IC50 (HepG2) [nM] | IC50 [2] [nM] | IC50 [3] [nM] | IC50 [4] [nM] | also measured |
| --- | --- | --- | --- | --- | --- | --- |
| C=C(c1cc(OC)nc(OC)c1)c1ccc(OC)c(OC)c1 | > 1000 |  |  |  |  |  |
| C=C(c1cc(OC)nc(OC)c1)c1cn(C)c2cc(OC)ccc12 | > 1000 |  |  |  |  |  |
| C=C(c1cc(OC)nc(OC)c1)c1cccc2[nH]ccc12 | > 1000 |  |  |  |  |  |
| C=C(c1cc(OC)nc(OC)c1)c1cc(OC)c(OC)c(OC)c1 | > 1000 |  |  |  |  |  |
| C=C(c1cc(OC)nc(OC)c1)c1ccc2c(ccn2C)c1 | 181 | 300 | 288 | 308 | 879 |  |
| C=C(c1cc(N2CCCC2)nc(N2CCCC2)c1)c1ccc(OC)c(O)c1 | > 1000 |  |  |  |  |  |
| C=C(c1ccncc1)c1ccc(OC)c(O)c1 | 151 | 261 | 222 | 208 | 696 |  |
| C=C(c1ccc(OC)c(O)c1)c1cc(OC)c(OC)c(OC)c1 | 6 | 10 | 10 | 12 | 86 | IC50 [5]: 2370 nM; inhibition (Sus scrofa [6]): 74%; inhibition (Sus scrofa [7]): 84.6%; inhibition in vivo at 30 mg/kg/day (H22 [8]): 66.9%; inhibition in vivo at 15 mg/kg/day (H22 [9]): 56.6%; Activity (K562 [10]): 37.19%; Activity (K562 [11]): 51.37%; Activity (K562 [12]): 11.45%; Activity (K562 [13]): 38.07%; Activity (K562 [14]): 48.36%; Activity (K562 [15]): 13.57%; Activity (K562 [16]): 36.01%; Activity (K562 [17]): 45.55%; Activity (K562 [18]): 18.44%; IC50 (H22 [19]): 8 nM |
| C=C(c1cc(Cl)nc(N2CCNCC2)c1)c1ccc(OC)c(O)c1 | > 1000 |  |  |  |  |  |
| C=C(c1cc(OC)nc(OC)c1)c1cn(C)c2ccccc12 | > 1000 |  |  |  |  |  |
| CC(=O)O[C@H]1C(=O)[C@@]2(C)[C@H]([C@H](OC(=O)c3ccccc3)[C@]3(O)C[C@H](OC(=O)[C@H](O)[C@@H](NC(=O)c4ccccc4)c4ccccc4)C(C)=C1C3(C)C)[C@]1(OC(C)=O)CO[C@@H]1C[C@@H]2O [PACLITAXEL] |  |  |  |  |  | inhibition in vivo at 6 mg/kg (H22 [20]): 64.3%; Activity (Sus scrofa [21]): Active; IC50 (H22 [19]): 84 nM |
| C=C(c1cc(Cl)nc(N(C)C)c1)c1ccc(OC)c(O)c1 | 16 | 27 | 29 | 29 | 114 |  |
| C=C(c1ccnc(C)c1)c1ccc(OC)c(O)c1 | 24 | 31 | 32 | 31 | 189 |  |
| C=C(c1cc(OC)nc(OC)c1)c1ccc2[nH]ccc2c1 | > 1000 |  |  |  |  |  |
| C=C(c1cc(OC)nc(OC)c1)c1c[nH]c2cc(OC)ccc12 | > 1000 |  |  |  |  |  |
| C=C(c1cc(N2CCOCC2)nc(N2CCOCC2)c1)c1ccc(OC)c(O)c1 | > 1000 |  |  |  |  |  |
| C=C(c1cc(OC)nc(OC)c1)c1cccc2c1ccn2C | > 1000 |  |  |  |  |  |
| C=C(c1cc(OC)nc(OC)c1)c1ccc2c(c1)OCO2 | > 1000 |  |  |  |  |  |
| C=C(c1cc(OC)nc(OC)c1)c1ccc(OC)c(O)c1 | 44 | 77 | 86 | 84 | 792 |  |
| C=C(c1cc(C)nc(C)c1)c1ccc2c(ccn2C)c1 | 21 | 30 | 31 | 34 | 176 |  |
| C=C(c1cc(OC)nc(OC)c1)c1c[nH]c2ccccc12 | > 1000 |  |  |  |  |  |
| C=C(c1cc(C)nc(C)c1)c1ccc(OC)c(O)c1 | 12 | 27 | 31 | 29 | 86 |  |
